From patent US12053480B2, “Methods and pharmaceutical compositions for treating peripheral demyelinating diseases” (INSERM (INSTITUT NATIONAL DE LA SANTE ET DE LA RECHERCHE …, priority 2015, dated 2024)

Tests used:
[1] = system: diabetic (db/db) mice; experiment: Behavioral tests (rotarod, grip, CatWalk) in diabetic mice; format: in vivo, mouse
Procedure: […] Mice and rats were first given a pretraining trial of two days to familiarize them with the rotating rod. For control and diabetic mice latency to fall was measured at fixed speed 10 rpm over a 180 s time as a cut-off. No acceleration testing was performed for mice. For control and CMT1A rats latency to fall and maximum rpm (revolutions per minute) were measured at accelerated speed. […] Each animal underwent three trials a day. For each day, data were averaged for each animal (values from the three trials), normalized according to animal weight and then averaged for each treated group.
[…] The runs were analyzed when the speed of crossing was constant and homogenous. At least three compliant runs were analyzed for each animal Data were averaged per animal, normalized according to animal weight and then per treated group. The resulting data provided quantitative parameters and qualitative walking patterns.
Neuromuscular strength of diabetic mice and CMT rats was assessed in standardized grip strength tests for front, hind and all limbs. All limbs grip strength was measured by rat supporting on the metal grid and pulling the animal's tail toward a horizontal grid connected to a gauge. Front and hind limb grip strength were measured by supporting the forelimbs or hindlimbs respectively and pulling the animal's tail toward a horizontal T-bar connected to a gauge. The maximum force (measured in newtons) exerted onto the T-bar or grid before the animals lost grip was recorded, and the mean of 3 repeated measurements was calculated. All data were normalized according to animal weight.
Finally, although the obesity of db/db diabetic mice hinders functional motor tests, we evaluated their neuromuscular performances during drug treatment using rotarod, grip and Catwalk tests. […] Rotarod and grip strength recoveries were not due to a reduced weight as no change in mice weight was observed during treatment.

[2] = system: phospho-c-jun; experiment: Immunohistochemistry of phospho-c-jun in mSC of CMT1A rats; format: in vivo, rat; settings: compared to vehicle
Procedure: The dissected nerve was washed in L15 medium, fixed in Zamboni's fixative (Stefanini et al., 1967^4) for 10 min at room temperature, washed in PBS, and incubated in successive glycerol baths (15, 45, 60, 66% in PBS) for 18 to 24 h each before freezing at −20° C. The nerves were cut in small pieces in 66% glycerol and the perineurium sheet removed. Small bundles of fibers were teased in double-distilled water on Superfrost slides, dried overnight at room temperature, and the slides stored at −20° C. For immunostaining, the teased fibers were incubated for 1 h at room temperature in blocking solution (10% goat serum, 0.2% TritonX100, and 0.01% sodium azide in PBS). […]
While demyelinating diabetes peripheral neuropathy is a commonly acquired disease, demyelination is also the characteristic feature of a large number of inherited diseases called Charcot-Marie-Tooth diseases (CMT). […] Twelve weeks old CMT1A rats were daily treated with TRO19622 for 15 or 30 days and one day or two months after treatment, we analyzed MAPK demyelination pathways by western blot. […] Then we analyzed phospho-c-jun activation in mSC using immunohistochemistry. […] Next, we measured Schwann cell demyelination and g-ratio by toluidine blue staining on semi-thin sciatic nerve sections and on thin sections using electron microscopy.

[3] = system: phospho-ERK1/2, phospho-p38, phospho-JNK and phospho-c-jun; experiment: Western blot of MAPK demyelination pathways in CMT1A rats; format: in vivo, rat; settings: for activation of phospho-ERK1/2, phospho-p38, phospho-JNK and phospho-c-jun: after 15 and 30 days of treatment
Excerpt: While demyelinating diabetes peripheral neuropathy is a commonly acquired disease, demyelination is also the characteristic feature of a large number of inherited diseases called Charcot-Marie-Tooth diseases (CMT). We therefore sought to test whether the inhibition of VDAC1 function could prevent demyelination in these diseases. We choose CMT1A rat strain^42 as this is arguably the most representative animal model of Charcot-Marie-Tooth disease, mimicking CMT1A the most prevalent CMT in humans^10. Twelve weeks old CMT1A rats were daily treated with TRO19622 for 15 or 30 days and one day or two months after treatment, we analyzed MAPK demyelination pathways by western blot. […] However, these effects disappeared two months after treatment. Then we analyzed phospho-c-jun activation in mSC using immunohistochemistry. […] Next, we measured Schwann cell demyelination and g-ratio by toluidine blue staining on semi-thin sciatic nerve sections and on thin sections using electron microscopy.

[4] = system: CMT1A rats; experiment: Electrophysiology (CMAP, NCV) in CMT1A rats; format: in vivo, rat; settings: CMT1A rats treated daily for one month
Procedure: Standard electroneurography was performed before, during and after TRO 19622 drug treatment on CMT1A rats and diabetic mice that were anesthetized with 3% isoflurane. A pair of steel needle electrodes (AD Instruments, MLA1302, Oxford, UK) was placed subcutaneously along the nerve at sciatic notch (proximal stimulation). A second pair of electrodes was placed along the tibial nerve above the ankle (distal stimulation). Supramaximal square wave pulses lasting 10 ms and 1 mA for mice and 3.6 mA for rats were delivered using a PowerLab 26T (AD Instruments, Oxford, UK). Compound muscle action potential (CMAP) was recorded from the intrinsic foot muscles using steel electrodes. Both amplitudes and latencies of CMAP were determined. The distance between the two sites of stimulation was measured alongside the skin surface with fully extended legs, and nerve conduction velocities (NCVs) were calculated automatically from sciatic nerve latency measurements (for further details Fledrich et al., 2014^10).

CC(C)CCC[C@@H](C)[C@H]1CC[C@H]2[C@@H]3CCC4=C/C(=N\O)CC[C@]4(C)[C@H]3CC[C@]12C [TRO19622, (NZ)—N-[(8S,9S,10R,13R,14S,17R)-10,13-dimethyl-17-[(2R)-6-methylheptan-2-yl]-1,2,6,7,8,9,11,12,14,15,16,17-dodecahydrocyclopenta[a]phenanthren-3-ylidene]hydroxylamine]
Catwalk test parameters [1]: no change | myelin thickness, nerve conduction velocity and neuromuscular defects (all these parameters) [1]: steadily improve | effects on MAPK activation, nerve structure and neuromuscular performance after stopping the treatment ([1]; 2 months after stopping the treatment): did not last | grip strength ([1]; 20 days after treatment): significant increase | rotarod latency ([1]; 20 days after treatment): significant increase | phospho-c-jun amount in the mSC nucleus [2]: strongly reduced | activation of phospho-ERK1/2, phospho-p38, phospho-JNK and phospho-c-jun [3]: significant down-regulation | activation of phospho-ERK1/2, phospho-p38, phospho-JNK and phospho-c-jun ([3]; listed as TRO16922): prevented | down-regulation of MAPK demyelination pathways after treatment stop ([3]; two months after treatment): disappeared | CMAP amplitude [4]: significant increase | nerve conduction velocity [4]: significant increase | nerve conduction velocity ([4]; listed as TRO16922): largely improved
